# Results reported in ChEMBL document CHEMBL4308841, “Synthesis, in vitro antiproliferative activity, and kinase inhibitory effects of pyrazole-containing diarylureas and diarylamides” (Eur J Med Chem, 2018).
# Columns and labels:
# [1] = tested on: CCRF-CEM; experiment: Growth inhibition of human CCRF-CEM cells assessed as cell growth at 0.01 uM incubated for 48 hrs by sulforhodamine B assay relative to control; format: functional; settings: read-out: Activity
# [2] = tested on: SNB-19; experiment: Growth inhibition of human SNB19 cells assessed as cell growth at 100 uM incubated for 48 hrs by sulforhodamine B assay relative to control; format: functional; settings: SNB-19, 48 h, read-out: Activity
# [3] = tested on: OVCAR-3; experiment: Growth inhibition of human OVCAR3 cells assessed as cell growth at 0.01 uM incubated for 48 hrs by sulforhodamine B assay relative to control; format: functional; settings: OVCAR-3, 48 h, read-out: Activity
# [4] = tested on: Hs-578T; experiment: Growth inhibition of human Hs578T cells assessed as cell growth at 0.1 uM incubated for 48 hrs by sulforhodamine B assay relative to control; format: functional; settings: read-out: Activity
# [5] = tested on: SF-295; experiment: Growth inhibition of human SF295 cells assessed as cell growth at 100 uM incubated for 48 hrs by sulforhodamine B assay relative to control; format: functional; settings: SF-295, 48 h, read-out: Activity
# [6] = tested on: BT-549; experiment: Growth inhibition of human BT549 cells assessed as cell growth at 0.01 uM incubated for 48 hrs by sulforhodamine B assay relative to control; format: functional; settings: BT-549, 48 h, read-out: Activity
# [7] = tested on: SW-620; experiment: Growth inhibition of human SW620 cells assessed as cell growth at 0.1 uM incubated for 48 hrs by sulforhodamine B assay relative to control; format: functional; settings: SW-620, 48 h, read-out: Activity
# [8] = tested on: UO-31; experiment: Growth inhibition of human UO31 cells assessed as cell growth at 100 uM incubated for 48 hrs by sulforhodamine B assay relative to control; format: functional; settings: UO-31, 48 h, read-out: Activity
# [9] = tested on: HCT-15; experiment: Growth inhibition of human HCT15 cells assessed as cell growth at 0.1 uM incubated for 48 hrs by sulforhodamine B assay relative to control; format: functional; settings: HCT-15, 48 h, read-out: Activity
# [10] = tested on: ACHN; experiment: Growth inhibition of human ACHN cells incubated for 48 hrs by sulforhodamine B assay; format: functional, cell-based
# [11] = tested on: 786-0; experiment: Growth inhibition of human 786-0 cells incubated for 48 hrs by sulforhodamine B assay; format: functional, cell-based; settings: 786-0, 48 h
# [12] = tested on: HL-60(TB); experiment: Growth inhibition of human HL-60(TB) cells assessed as cell growth at 0.1 uM incubated for 48 hrs by sulforhodamine B assay relative to control; format: functional; settings: HL-60, 48 h, read-out: Activity
# [13] = tested on: UACC-62; experiment: Growth inhibition of human UACC62 cells assessed as cell growth at 0.1 uM incubated for 48 hrs by sulforhodamine B assay relative to control; format: functional; settings: UACC-62, 48 h, read-out: Activity
# [14] = tested on: BT-549; experiment: Growth inhibition of human BT549 cells incubated for 48 hrs by sulforhodamine B assay; format: functional, cell-based; settings: BT-549, 48 h
# [15] = tested on: CCRF-CEM; experiment: Growth inhibition of human CCRF-CEM cells assessed as cell growth at 100 uM incubated for 48 hrs by sulforhodamine B assay relative to control; format: functional; settings: read-out: Activity
# [16] = tested on: M14; experiment: Growth inhibition of human M14 cells assessed as cell growth at 0.1 uM incubated for 48 hrs by sulforhodamine B assay relative to control; format: functional; settings: M14, 48 h, read-out: Activity
# [17] = tested on: SK-MEL-5; experiment: Growth inhibition of human SK-MEL-5 cells assessed as cell growth at 100 uM incubated for 48 hrs by sulforhodamine B assay relative to control; format: functional; settings: SK-MEL-5, 48 h, read-out: Activity
# [18] = tested on: MOLT-4; experiment: Growth inhibition of human MOLT4 cells assessed as cell growth at 1 uM incubated for 48 hrs by sulforhodamine B assay relative to control; format: functional; settings: MOLT-4, 48 h, read-out: Activity
# [19] = tested on: NCI-H322M; experiment: Growth inhibition of human NCI-H322M cells incubated for 48 hrs by sulforhodamine B assay; format: functional, cell-based
# [20] = tested on: SK-MEL-28; experiment: Growth inhibition of human SK-MEL-28 cells assessed as cell growth at 1 uM incubated for 48 hrs by sulforhodamine B assay relative to control; format: functional; settings: SK-MEL-28, 48 h, read-out: Activity
# [21] = tested on: NCI-H322M; experiment: Growth inhibition of human NCI-H322M cells assessed as cell growth at 0.01 uM incubated for 48 hrs by sulforhodamine B assay relative to control; format: functional; settings: read-out: Activity
# [22] = tested on: NCI-H522; experiment: Growth inhibition of human NCI-H522 cells assessed as cell growth at 1 uM incubated for 48 hrs by sulforhodamine B assay relative to control; format: functional; settings: NCI-H522, 48 h, read-out: Activity
# [23] = tested on: KM12; experiment: Growth inhibition of human KM12 cells incubated for 48 hrs by sulforhodamine B assay; format: functional, cell-based; settings: KM12, 48 h
# [24] = tested on: T47D; experiment: Growth inhibition of human T47D cells assessed as cell growth at 0.01 uM incubated for 48 hrs by sulforhodamine B assay relative to control; format: functional; settings: read-out: Activity
# [25] = tested on: CAKI-1; experiment: Growth inhibition of human Caki1 cells assessed as cell growth at 0.1 uM incubated for 48 hrs by sulforhodamine B assay relative to control; format: functional; settings: CAKI-1, 48 h, read-out: Activity
# [26] = tested on: SK-MEL-2; experiment: Growth inhibition of human SK-MEL-2 cells assessed as cell growth at 0.1 uM incubated for 48 hrs by sulforhodamine B assay relative to control; format: functional; settings: SK-MEL-2, 48 h, read-out: Activity
# [27] = tested on: U-251; experiment: Growth inhibition of human U251 cells assessed as cell growth at 0.01 uM incubated for 48 hrs by sulforhodamine B assay relative to control; format: functional; settings: U-251, 48 h, read-out: Activity
# [28] = tested on: MDA-MB-468; experiment: Growth inhibition of human MDA-MB-468 cells assessed as cell growth at 0.01 uM incubated for 48 hrs by sulforhodamine B assay relative to control; format: functional; settings: MDA-MB-468, 48 h, read-out: Activity
# [29] = tested on: SNB-19; experiment: Growth inhibition of human SNB19 cells assessed as cell growth at 0.1 uM incubated for 48 hrs by sulforhodamine B assay relative to control; format: functional; settings: SNB-19, 48 h, read-out: Activity
# [30] = tested on: IGROV-1; experiment: Growth inhibition of human IGROV1 cells incubated for 48 hrs by sulforhodamine B assay; format: functional, cell-based; settings: IGROV-1, 48 h
# [31] = read-out: LC50 (the source's name)
# [32] = read-out: pLC50 (the source's name) (converted)
structure (smiles),measurement,setting,value
COc1cc(Cl)cc(-c2nn(-c3cccc(NC(=O)c4cccc(C(F)(F)F)c4)c3)cc2-c2ccncc2)c1,growth at 0.01 µM,[1],96%
same,growth at 100 µM,[2],72%
same,growth at 0.01 µM,[3],105%
same,growth at 0.1 µM,[4],89%
same,growth at 100 µM,[5],35%
same,growth at 0.01 µM,[6],108%
same,growth at 0.1 µM,[7],99%
same,growth at 100 µM,[8],37%
same,growth at 0.1 µM,[9],91%
same,GI50,[10]; read-out: GI50,7.21 µM
same,CC50,[10]; [31],> 100 µM
same,TGI,[10]; read-out: TGI,> 100 µM
same,GI50,[10]; read-out: pGI50 (converted),7.24 µM
same,CC50,[10]; [32],> 100 µM
same,TGI,[10]; read-out: pTGI (converted),> 100 µM
same,GI50,[11]; read-out: GI50,1.57 µM
same,CC50,[11]; [31],> 100 µM
same,TGI,[11]; read-out: TGI,> 100 µM
same,GI50,[11]; read-out: pGI50 (converted),16.6 µM
same,CC50,[11]; [32],> 100 µM
same,TGI,[11]; read-out: pTGI (converted),> 100 µM
same,growth at 0.1 µM,[12],90%
same,growth at 0.1 µM,[13],94%
same,GI50,[14]; read-out: GI50,> 100 µM
same,CC50,[14]; [31],> 100 µM
same,TGI,[14]; read-out: TGI,> 100 µM
same,GI50,[14]; read-out: pGI50 (converted),> 100 µM
same,CC50,[14]; [32],> 100 µM
same,TGI,[14]; read-out: pTGI (converted),> 100 µM
same,growth at 100 µM,[15],32%
same,growth at 0.1 µM,[16],93%
same,growth at 100 µM,[17],20%
same,growth at 1 µM,[18],72%
same,GI50,[19]; read-out: GI50,> 100 µM
same,CC50,[19]; [31],> 100 µM
same,TGI,[19]; read-out: TGI,> 100 µM
same,GI50,[19]; read-out: pGI50 (converted),> 100 µM
same,CC50,[19]; [32],> 100 µM
same,TGI,[19]; read-out: pTGI (converted),> 100 µM
same,growth at 1 µM,[20],92%
same,growth at 0.01 µM,[21],69%
same,growth at 1 µM,[22],54%
same,GI50,[23]; read-out: GI50,4.53 µM
same,CC50,[23]; [31],> 100 µM
same,TGI,[23]; read-out: TGI,> 100 µM
same,GI50,[23]; read-out: pGI50 (converted),4.57 µM
same,CC50,[23]; [32],> 100 µM
same,TGI,[23]; read-out: pTGI (converted),> 100 µM
same,growth at 0.01 µM,[24],99%
same,growth at 0.1 µM,[25],94%
same,growth at 0.1 µM,[26],95%
same,growth at 0.01 µM,[27],94%
same,growth at 0.01 µM,[28],91%
same,growth at 0.1 µM,[29],97%
same,GI50,[30]; read-out: GI50,> 100 µM
same,CC50,[30]; [31],> 100 µM
same,TGI,[30]; read-out: TGI,> 100 µM
same,GI50,[30]; read-out: pGI50 (converted),> 100 µM
same,CC50,[30]; [32],> 100 µM
same,TGI,[30]; read-out: pTGI (converted),> 100 µM
